Data on 2 compounds can be found in US20110262895A1, “METHODS FOR THE DIAGNOSIS OF VARICELLA ZOSTER VIRUS INFECTION” (priority 2008, published 2011).

Test [1] relates to varicella-zoster virus (VZV) DNA in saliva. In words: Salivary VZV DNA by real-time PCR in herpes zoster patients treated with valacyclovir. The class given is in vivo, human. As to conditions: oral valacyclovir 1 g 3 times daily for 7 days, 50 patients with follow-up. Here is the method:
Methods. All human-study protocols were approved by the Committee for the Protection of Human Subjects of the Lyndon B. Johnson Space Center (control subjects) and by the Institutional Review Board of the University of Texas Health Sciences Center (patients with herpes zoster). Informed consent was obtained from all subjects. The 54 patients with herpes zoster consisted of 29 women (21-82 years old) and 25 men (35-79 years old) (Table 2). All patients with herpes zoster were treated with oral valacyclovir (1 g 3 times daily) for 7 consecutive days. Pain was described by all patients on a scale of 0 (no pain) to 10 (worst pain) (Jacox et al., 1994). […]
Saliva samples from all subjects were obtained by having subjects suck on a cotton plug for 1-2 min, after which the saturated cotton was placed in a salivette tube (Sarstedt). […] Quantitative real-time polymerase chain reaction (PCR) was performed in a TaqMan 7700 sequence detector (Applied Biosystems) using fluorescence-based simultaneous amplification and product detection.
Primers and probes specific for VZV, herpes simplex virus (HSV)-1 and GAPDH DNA sequences have been described elsewhere (Mehta et al., 2004; Cohrs et al., 2000). […] At the height of CPE, cells were analyzed by PCR with HSV-1-specific and VZV-specific primers (Mehta et al., 2004; Cohrs et al., 2000) and by immunohistochemistry for viral antigens.
(Real-time PCR tracks product formation cycle by cycle.)

Test [2] is described as follows: Pain score (0-10) in herpes zoster patients treated with valacyclovir. The format is in vivo, human. The conditions noted are these: oral valacyclovir 1 g 3 times daily for 7 days, 50 patients with follow-up. Here is the method: Methods. All human-study protocols were approved by the Committee for the Protection of Human Subjects of the Lyndon B. Johnson Space Center (control subjects) and by the Institutional Review Board of the University of Texas Health Sciences Center (patients with herpes zoster). Informed consent was obtained from all subjects. The 54 patients with herpes zoster consisted of 29 women (21-82 years old) and 25 men (35-79 years old) (Table 2). All patients with herpes zoster were treated with oral valacyclovir (1 g 3 times daily) for 7 consecutive days. Pain was described by all patients on a scale of 0 (no pain) to 10 (worst pain) (Jacox et al., 1994). Six control subjects consisted of 5 women (24-64 years old) and 1 person with chronic pain due to malignancy or non-VZV inflammatory disease. Fourteen additional healthy control subjects consisted of 9 men and 5 women (34-70 years old). Three saliva samples were collected at weekly intervals from all 6 control subjects with chronic pain and from the 14 healthy control subjects.

A further test has as its system VZV. The conditions noted are these: requires VZV thymidine kinase for phosphorylation; cited from earlier work.
For the next test, the system named is HSV. As to conditions: cited from earlier work.
The subject of the next test is CMV. The conditions noted are these: cited from earlier work.

With `CC(C)[C@H](N)C(=O)OCCOCn1cnc2c(=O)[nH]c(N)nc21` [valacyclovir], the “patients in whom VZV DNA disappeared from saliva” value in test [1] (2-week study period) amounted to 82%. Besides, the “patients in whom virus DNA copy numbers decreased in saliva” value in test [1] (14-day study period) was found to be 94%. Also, the “patients in whom pain decreased” value in test [2] (14-day study period) is reported as 86%. The “patients in whom pain disappeared” value in test [2] (end of 2-week study period) was found to be 74%.
`CC#Cc1cn([C@@H]2O[C@H](CO)[C@@H](O)[C@@H]2O)c(=O)[nH]c1=O` [882C]: the “activity against VZV” value in the test with VZV was “specific activity against VZV”. For the same compound, in the test with HSV, the “activity against HSV” value was “without any significant activity”. Besides, in the test on CMV, the “activity against CMV” value was “without any significant activity”.
